Measured values: ChEMBL document CHEMBL1833808, “Identification of novel BRAF kinase inhibitors with structure-based virtual screening” (Bioorg Med Chem Lett, 2011)

Biological target: Serine/threonine-protein kinase B-raf (Homo sapiens, UniProt P15056)
Assay: Inhibition of BRAF

Serine/threonine-protein kinase B-raf, sequence (P15056 whole entry): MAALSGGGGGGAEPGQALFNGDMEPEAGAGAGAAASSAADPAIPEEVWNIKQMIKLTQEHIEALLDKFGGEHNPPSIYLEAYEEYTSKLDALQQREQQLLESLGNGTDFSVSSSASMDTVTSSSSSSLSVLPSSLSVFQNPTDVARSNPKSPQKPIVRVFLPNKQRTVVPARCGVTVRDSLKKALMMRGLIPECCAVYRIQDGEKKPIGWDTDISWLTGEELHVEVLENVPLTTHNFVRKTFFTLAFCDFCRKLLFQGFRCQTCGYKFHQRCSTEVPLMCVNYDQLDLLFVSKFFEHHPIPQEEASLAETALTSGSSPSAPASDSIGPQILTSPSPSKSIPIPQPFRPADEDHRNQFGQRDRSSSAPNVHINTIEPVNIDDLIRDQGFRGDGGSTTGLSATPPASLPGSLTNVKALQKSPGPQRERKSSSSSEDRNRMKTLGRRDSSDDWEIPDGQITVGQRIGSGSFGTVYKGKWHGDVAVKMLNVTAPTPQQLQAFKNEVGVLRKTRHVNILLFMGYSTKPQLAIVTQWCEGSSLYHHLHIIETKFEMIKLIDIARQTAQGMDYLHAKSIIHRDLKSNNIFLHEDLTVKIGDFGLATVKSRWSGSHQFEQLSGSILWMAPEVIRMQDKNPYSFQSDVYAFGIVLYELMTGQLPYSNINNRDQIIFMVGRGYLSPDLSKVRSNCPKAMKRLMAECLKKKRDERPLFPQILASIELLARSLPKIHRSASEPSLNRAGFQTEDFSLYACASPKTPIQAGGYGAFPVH

Structure (SMILES)	Kd
CCOC(=O)c1cccc(Nc2nc(N)nc3[nH]cnc23)c1	0.7 µM
Cc1ccc(/C=C/c2nc(N)nc(-c3ccccc3O)n2)o1	20 µM
Cc1ccc(CNC(=O)c2c(N)n(-c3cccc(O)c3)c3nc4ccccc4nc23)cc1	12.6 µM

Other lines, results leading:

Kd	Structure (SMILES)
2.1 µM	NC(=O)c1ccc(Nc2nnc(-c3ccc(O)cc3)c3ccccc23)cc1
18.5 µM	O=C1N/C(=N\c2ccc(O)cc2)S/C1=C\c1c[nH]c2ccccc12
